Like-named read-outs stand apart in the source and are kept apart here.
How the values were obtained:
[1] = cited from earlier work
[2] = test system: Bacillus atrophaeus spores; assay: Filtering test: spores incubated in test solution, filtered, filter half treated with ozone, colonies counted; format: cell-based; details: test solution followed by ~350 ppm ozone, 5 or 10 min
Description: Bacterial spores: Stainless steel discs with Bacillus atrophaeus spores (log 6, cat #1-6100ST, Raven Biological Laboratories).
An ozone generator provided ˜350 ppm O3, and a flow rate of ˜25 l/min, using setting No. 1.
Commercially available sterile single filters (pore size 0.45 μm) and an analytical test filter funnel from Nalgene was used (F-2161, Sigma-Aldrich). For suction, a Rietschle Thomas DTF 6 vacuum pump was used, with a flow rate of ˜6 m3/h, providing a vacuum of ˜150 mbar abs.
Filtering test: In filtering test experiments the spore solutions were prepared in a volume of 1 ml and processed. Thereto, after an incubation period of 5 min in the appropriate buffer at 40° C. using a rotary shaker, an aliquot of 250 μl of the suspension was transferred onto a sterile single use filters. The filter was washed two times with 10 ml of sterile water. The filter was retrieved under sterile conditions, and the filter was cut into halves using a sterile scissor. Only one half of the filter was treated with ozone, while the other half was kept as control, i.e. without ozone treatment. Finally, both halves were placed onto a TSA plate and incubated at 30° C. Initially Nutrient Agar plates were used, but later on a switch was made to TSA plates, in order to utilize the more pronounced reddish colour of Bacillus atrophaeus colonies which was facilitating analysis and documentation. […]

In the case of `O=[O+][O-]` [ozone], the “half-life of ozone in gas” value ([1]; 20 ° C.) is listed as “approximately 3 days”, the “half-life of ozone in gas” value ([1]; 250° C.) is listed as 1.5 s and the “sterilizing/disinfecting/killing effect (in words)” value [2] is listed as “increased after 10 min compared to 5 min”.
